This test deals with T1, human chemokine receptor 2 isoform B (Homo sapiens, UniProt P41597).
T1 construct: host or cells: CHOK1-CCR2B-A5 cells (CHO-K1)
T1 sequence (P41597 1-360 isoform P41597-2): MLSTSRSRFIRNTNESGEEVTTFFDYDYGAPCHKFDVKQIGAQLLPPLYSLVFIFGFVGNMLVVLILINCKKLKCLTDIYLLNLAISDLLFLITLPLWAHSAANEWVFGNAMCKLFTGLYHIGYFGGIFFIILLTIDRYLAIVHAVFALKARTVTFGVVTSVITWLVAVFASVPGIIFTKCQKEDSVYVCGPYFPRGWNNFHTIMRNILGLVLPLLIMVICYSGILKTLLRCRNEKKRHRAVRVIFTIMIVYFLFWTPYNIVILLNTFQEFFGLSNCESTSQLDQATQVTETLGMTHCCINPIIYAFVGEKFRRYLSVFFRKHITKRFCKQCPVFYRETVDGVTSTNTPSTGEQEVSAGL
Nature of the test: Calcium mobilization assay (FLIPR, antagonist activity against MCP-1). As to conditions: Ca mobilisation assay, CHOK1-CCR2B-A5 cells, inhibition of calcium increase induced by 20 nM MCP-1. In kind it is cell-based. The method, then: Calcium Mobilization Assay
CHOK1-CCR2B-A5 cells (from Euroscreen) stably overexpressing the human chemokine receptor 2 isoform B were cultured in Nutrient Hams F12 medium supplemented with 5% FBS, 100 U/ml penicillin, 100 μg/ml streptomycin, 400 μg/ml G418 and 5 μg/ml puromycin.
For the assay cells were grown overnight in 384-well black clear flat bottom polystyrene plates (Costar) at 37° C. at 5% CO2. After washing with DMEM, 20 mM Hepes, 2.5 mM probenecid, 0.1% BSA (DMEM assay buffer) cells were loaded with 4 μM Fluo-4 in the same DMEM assay buffer for 2 hours at 30° C. Excess dye was removed and cells were washed with DMEM assay buffer. 384-well compound plates were prepared with DMEM assay buffer/0.5% DMSO with or without various concentrations of test compounds. Usually compounds were tested for agonist and antagonist activity.
Test compounds were added to the assay plate and agonist activity was monitored as fluorescence for 80 seconds with a FLIPR (488 nm excitation; 510-570 nm emission; Molecular Devices). After 20-30 min. of incubation at 30° C., 20 nM MCP-1 (R&D; Roche) was added and fluorescence was monitored again for 80 seconds. Increases in intracellular calcium are reported as maximum fluorescence after agonist exposure minus basal fluorescence before exposure. Antagonist activity is indicated as inhibitor concentration required for 50% inhibition of specific calcium increases.
(Calcium assays in cells follow changes in intracellular calcium, usually with a dye or a luminescent sensor.)

For `C[C@H]1C(=O)N(C[C@H](O)CC(=O)N2CCC3(CC3)[C@H](O)C2)CCN1C(=O)Nc1ccc(OC(F)(F)F)c(Cl)c1` [Example 46, (S)-4-[(R)-2-hydroxy-4-((S)-4-hydroxy-6-aza-spiro[2.5]oct-6-yl)-4-oxo-butyl]-2-methyl-3-oxo-piperazine-1-carboxylic acid (3-chloro-4-trifluoromethoxy-phenyl)-amide], the IC50 amounted to 4.2 nM. As to `C[C@H]1C(=O)N(CCC(C)(C)C(=O)N2CCC3(CC3)[C@H](O)C2)CCN1C(=O)Nc1ccc(OC(F)(F)F)c(Cl)c1` [Example 51, (S)-4-[4-((S)-4-Hydroxy-6-aza-spiro[2.5]oct-6-yl)-3,3-dimethyl-4-oxo-butyl]-2-methyl-3-oxo-piperazine-1-carboxylic acid (3-chloro-4-trifluoromethoxy-phenyl)-amide], the IC50 was 750 nM. Turning to `O=C(/C=C/c1ccc(Cl)c(Cl)c1)N1CCC(=O)N(CCC(=O)N2CCCCC2CO)CC1` (racemic) [Example 67, (rac)-1-[(E)-3-(3,4-Dichloro-phenyl)-acryloyl]-4-[3-(2-hydroxymethyl-piperidin-1-yl)-3-oxo-propyl]-[1,4]diazepan-5-one], the half-maximal inhibitory concentration (IC50) is 1600 nM.

As for `CC1(O)CCCN(C(=O)CN2CCN(C(=O)/C=C/c3ccc(Cl)c(Cl)c3)CCC2=O)C1` (racemic) [Example 100, (rac)-1-[(E)-3-(3,4-Dichloro-phenyl)-acryloyl]-4-[2-(3-hydroxy-3-methyl-piperidin-1-yl)-2-oxo-ethyl]-[1,4]diazepan-5-one], the IC50 is 411 nM. For the compound `C[C@H]1C(=O)N(CCCC(=O)N2CCC3(CC3)[C@H](O)C2)CCN1C(=O)Nc1ccc(Cl)cc1` [Example 27, (S)-4-[4-((S)-4-Hydroxy-6-aza-spiro[2.5]oct-6-yl)-4-oxo-butyl]-2-methyl-3-oxo-piperazine-1-carboxylic acid (4-chloro-phenyl)-amide], the IC50 stood at 85 nM.

Regarding `C[C@@H]1CN(CCCC(=O)N2CCC3(CC3)[C@H](O)C2)C(=O)CCN1c1ccc(C(F)(F)F)c(Cl)c1` [Example 66, (R)-1-(3-Chloro-4-trifluoromethyl-phenyl)-4-[4-((S)-4-hydroxy-6-aza-spiro[2.5]oct-6-yl)-4-oxo-butyl]-2-methyl-[1,4]diazepan-5-one], the IC50 was 109 nM.

Turning to `C[C@H]1C(=O)N(C[C@@H](O)CC(=O)N2CCC3(CC3)[C@H](O)C2)CCN1C(=O)Nc1ccc(C(F)(F)F)c(Cl)c1` [Example 42, (S)-4-[(S)-2-Hydroxy-4-((S)-4-hydroxy-6-aza-spiro[2.5]oct-6-yl)-4-oxo-butyl]-2-methyl-3-oxo-piperazine-1-carboxylic acid (3-chloro-4-trifluoromethyl-phenyl)-amide], the IC50 worked out at 8.2 nM. As for `C[C@H]1C(=O)N([C@@H](CCC(=O)N2CCC3(CC3)[C@H](O)C2)C(=O)O)CCN1C(=O)Nc1ccc(C(F)(F)F)c(Cl)c1` [Example 140, (S)-2-[(S)-4-(3-Chloro-4-trifluoromethyl-phenylcarbamoyl)-3-methyl-2-oxo-piperazin-1-yl]-5-((S)-4-hydroxy-6-aza-spiro[2.5]oct-6-yl)-5-oxo-pentanoic acid], the IC50 worked out at 751 nM.

With `C[C@H]1C(=O)N(CCCC(=O)N2CCC3(CC3)[C@H](O)C2)[C@H](C(N)=O)CN1C(=O)Nc1ccc(C(F)(F)F)c(Cl)c1` [Example 147, (3S,6S)—N1-(3-chloro-4-(trifluoromethyl)phenyl)-4-(4-((S)-4-hydroxy-6-azaspiro[2.5]octan-6-yl)-4-oxobutyl)-6-methyl-5-oxopiperazine-1,3-dicarboxamide], the IC50 was determined as 3.5 nM. As to `COC(=O)[C@H](CCC(=O)N1CCC2(CC2)[C@H](O)C1)N1CCN(C(=O)Nc2ccc(OC(F)(F)F)c(Cl)c2)[C@@H](C)C1=O` [Example 54, (S)-2-[(S)-4-(3-Chloro-4-trifluoromethoxy-phenylcarbamoyl)-3-methyl-2-oxo-piperazin-1-yl]-5-((S)-4-hydroxy-6-aza-spiro[2.5]oct-6-yl)-5-oxo-pentanoic acid methyl ester], the IC50 worked out at 216 nM. As for `O=C(/C=C/c1ccc(Cl)c(Cl)c1)N1CCC(=O)N(C(CO)CC(=O)N2CCCCC2)CC1` (racemic) [Example 6, rac-(1-[(E)-3-(3,4-Dichloro-phenyl)-acryloyl]-4-(1-hydroxymethyl-3-oxo-3-piperidin-1-yl-propyl)-[1,4]diazepan-5-one)], the IC50 was determined as 2020 nM. As to `O=C(/C=C/c1ccc(Cl)c(Cl)c1)N1CCC(=O)N(CCC(=O)N2CCC3(CCCO3)CC2)CC1` [Example 86, 1-[(E)-3-(3,4-Dichloro-phenyl)-acryloyl]-4-[3-(1-oxa-8-aza-spiro[4.5]dec-8-yl)-3-oxo-propyl]-[1,4]diazepan-5-one], the IC50 came to 326 nM.

With `C[C@H]1C(=O)N(CCCC(=O)N2CCC3(CC3)[C@H](O)C2)C(C(=O)O)CN1C(=O)Nc1ccc(Cl)c(Cl)c1` (mixture of isomers) [Example 120, (2RS,5S)-4-(3,4-Dichloro-phenylcarbamoyl)-1-[4-((S)-4-hydroxy-6-aza-spiro[2.5]oct-6-yl)-4-oxo-butyl]-5-methyl-6-oxo-piperazine-2-carboxylic acid], the IC50 stood at 386 nM. Regarding `COC(=O)C(CC(=O)N1CCC2(CC2)[C@H](O)C1)N1CCN(C(=O)/C=C/c2cccc(Cl)c2)CCC1=O` (some centres unmarked) [Example 10], the IC50 turned out to be 708 nM. Consider `O=C(/C=C/c1ccc(Cl)c(Cl)c1)N1CCC(=O)N(CCC(=O)N2CC[C@H](O)[C@H](O)C2)CC1` (racemic) [Example 2, 1-[(E)-3-(3,4-Dichloro-phenyl)-acryloyl]-4-[3-((3RS,4SR)-3,4-dihydroxy-piperidin-1-yl)-3-oxo-propyl]-[1,4]diazepan-5-one], for which the IC50 came to 1970 nM. In the case of `C[C@H]1C(=O)N(CCCC(=O)N2CCC3(CC3)[C@H](O)C2)C(C(N)=O)CN1C(=O)Nc1ccc(Cl)c(Cl)c1` (stereo partly drawn) [Example 121, (3RS,6S)-4-[4-((S)-4-Hydroxy-6-aza-spiro[2.5]oct-6-yl)-4-oxo-butyl]-6-methyl-5-oxo-piperazine-1,3-dicarboxylic acid 3-amide 1-[(3,4-dichloro-phenyl)-amide]] it was 11 nM.

Regarding `O=C(/C=C/c1ccc(Cl)c(Cl)c1)N1CCC(=O)N(CC(=O)N2CCC3(CCCO3)CC2)CC1` [Example 98, 1-[(E)-3-(3,4-Dichloro-phenyl)-acryloyl]-4-[2-(1-oxa-8-aza-spiro[4.5]dec-8-yl)-2-oxo-ethyl]-[1,4]diazepan-5-one], the IC50 stood at 1700 nM.

On to `C[C@H]1C(=O)N(CCC(=O)N2CCC3(CC3)[C@H](O)C2)CCN1C(=O)/C=C/c1ccc(F)c(Cl)c1` [Example 64, (S)-4-[(E)-3-(3-Chloro-4-fluoro-phenyl)-acryloyl]-1-[3-((S)-4-hydroxy-6-aza-spiro[2.5]oct-6-yl)-3-oxo-propyl]-3-methyl-piperazin-2-one], for which the IC50 stood at 1240 nM. In the case of `C[C@H]1C(=O)N(CCCC(=O)N2CCC(CO)CC2)CCN1C(=O)Nc1cccc(Cl)c1` [Example 109, (S)-4-[4-(4-Hydroxymethyl-piperidin-1-yl)-4-oxo-butyl]-2-methyl-3-oxo-piperazine-1-carboxylic acid (3-chloro-phenyl)-amide], the IC50 was determined as 4650 nM. Consider `COC(=O)[C@H](CCC(=O)N1CCC2(CC2)[C@H](O)C1)N1CC(C)N(c2ccc(C(F)(F)F)c(C(F)(F)F)c2)CCC1=O` (stereo partly drawn) [Example 127, (S)-2-[(R,S)-4-(3,4-Bis-trifluoromethyl-phenyl)-3-methyl-7-oxo-[1,4]diazepan-1-yl]-5-((S)-4-hydroxy-6-aza-spiro[2.5]oct-6-yl)-5-oxo-pentanoic acid methyl ester], for which the IC50 stood at 191 nM. `O=C(/C=C/c1ccc(Cl)c(Cl)c1)N1CCC(=O)N(CC(=O)N2CCCCC2)CC1` [Example 95, 1-[(E)-3-(3,4-Dichloro-phenyl)-acryloyl]-4-(2-oxo-2-piperidin-1-yl-ethyl)-[1,4]diazepan-5-one]: the IC50 came to 150 nM. In the case of `O=C1CCN(C(=O)Nc2ccc(C(F)(F)F)c(Cl)c2)CCN1CCCC(=O)N1CCC2(CC2)[C@H](O)C1` [Example 119, 4-[4-((S)-4-Hydroxy-6-aza-spiro[2.5]oct-6-yl)-4-oxo-butyl]-5-oxo-[1,4] diazepane-1-carboxylic acid (3-chloro-4-trifluoromethyl-phenyl)-amide], the IC50 worked out at 17.6 nM. The same measure for `O=C1NC(=O)C2(CCN(C(=O)CCN3CCN(C(=O)/C=C/c4ccc(Cl)c(Cl)c4)CCC3=O)CC2)N1` [Example 89, 8-(3-{4-[(E)-3-(3,4-Dichloro-phenyl)-acryloyl]-7-oxo-[1,4]diazepan-1-yl}-propionyl)-1,3,8-triaza-spiro[4.5]decane-2,4-dione]: 4000 nM.

The IC50 is the concentration that inhibits the measured activity by half.

The record behind these values is patent US8445674B2, “Heterocyclyl compounds” (Hoffmann-La Roche Inc, priority 2009, dated 2013).
